# According to ChEMBL document CHEMBL1141366, “Isolation of quinic acid derivatives and flavonoids from the aerial parts of Lactuca indica L. and their hepatoprotective activity in vitro” (Bioorg Med Chem Lett, 2007):
# Activity calls are given as the source filed them. No cut-off for these calls is given here.
# Tests used:
# [1] = tested on: Hepatitis B virus; assay: Antiviral activity against hepatitis B virus assessed as inhibition of viral particle production; format: functional, organism-based
# [2] = tested on: Hepatitis B virus; assay: Hepatoprotective activity against HBV in human HepG2.2.15 cells; format: functional, organism-based; details: HepG2 2.2.15
SMILES,Activity [1],Activity [2]
O=C(/C=C/c1ccc(O)c(O)c1)O[C@@H]1[C@H](O)C[C@@](O)(C(=O)O)C[C@H]1OC(=O)/C=C/c1ccc(O)c(O)c1,Active,Active
O=C(/C=C/c1ccc(O)c(O)c1)O[C@@H]1C[C@](O)(C(=O)O)C[C@@H](OC(=O)/C=C/c2ccc(O)c(O)c2)[C@H]1O,Active,Active
O=C(/C=C/c1ccc(O)cc1)O[C@@H]1C[C@](O)(C(=O)O)C[C@@H](O)[C@H]1O,Active,Active
O=C(/C=C/c1ccc(O)c(O)c1)O[C@H]1[C@H](O)C[C@](O)(C(=O)O)C[C@H]1OC(=O)/C=C/c1ccc(O)c(O)c1,Active,Active
O=C(/C=C/c1ccc(O)c(O)c1)O[C@@H]1C[C@](O)(C(=O)O)C[C@@H](O)[C@H]1O,Active,Active
O=C(/C=C/c1ccc(O)c(O)c1)O[C@@H]1C[C@@](O)(C(=O)O)C[C@@H](O)[C@@H]1O,Active,Active
O=c1c(O[C@@H]2O[C@H](CO)[C@@H](O)[C@H](O)[C@H]2O)c(-c2ccc(O)c(O)c2)oc2cc(O)cc(O)c12,Active,Active
